Measured values: patent US20110245190A1, “METHOD FOR IMPROVING POST SURGERY VISUAL ACUITY OUTCOME WITH AZITHROMYCIN” (priority 2009, published 2011)

Tested on: patients with contact lens-related dry eye disease (CLDE)
Assay: Study of azithromycin 1% ophthalmic solution vs rewetting drops over four weeks in contact lens-related dry eye disease (Example 2)
Type: in vivo, human
Source text: The objective of this study is to compare the efficacy of study drug, AZASITE® (azithromycin ophthalmic solution) 1%, versus rewetting drops (Visine for Contacts™) over a four week treatment period in patients with contact lens-related dry eye disease (CLDE).
Subjects are 18 years of age or older. Subjects have a positive diagnosis of CLDE based on their responses to the Contact Lens Dry Eye Questionnaire (CLDEQ, Nichols et al, Cornea 21:469-75 (2002)) and a score of ≧2, (i.e., moderate severity on a 0-4 scale, where 0=no ocular dryness and 4=very severe ocular dryness) on a self-reported assessment of ocular dryness at the screening Visit. A total of 50 subjects are enrolled in the study.
Subjects were asked to rate their level of ocular dryness on a 0-4 scale. Tear osmolarity was then assessed for each eye using the TearLab Osmolarity System®. Subjects were then instructed to remove their contact lenses and slit-lamp biomicroscopy and external eye exams were performed. Fluorescein corneal staining was then performed on each eye (5 μl of 2% fluorescein applied to the ocular surface) and graded according to National Eye Institute (NEI) criteria.
Eligible subjects were then randomized to receive either azithromycin 1% ophthalmic solution (AzaSite®), or rewetting drops (Visine for Contacts™) in a 1:1 ratio and they were not masked as to the treatment assignment. Subjects randomized to azithromcyin 1% were instructed to administer one drop to each eye BID for the first two days and then one drop QD for days 3-29. Subjects randomized to rewetting drops were instructed to administer one to two drops QID throughout the 29 day treatment period. The first dose of study medication was self-administered at the clinic once dosing instructions were provided. […]
Concomitant medication usage was recorded, an AE query performed, study medication and diary cards were collected. Subjects underwent habitual HCVA and LCVA assessment, completed the CLDEQ, and had tear osmolarity readings measured prior to removing their contact lenses. […]

SMILES: CC[C@H]1OC(=O)[C@H](C)[C@@H](O[C@H]2C[C@@](C)(OC)[C@@H](O)[C@H](C)O2)[C@H](C)[C@@H](O[C@@H]2O[C@H](C)C[C@H](N(C)C)[C@H]2O)[C@](C)(O)C[C@@H](C)CN(C)[C@H](C)[C@@H](O)[C@]1(C)O [azithromycin]
- mean ocular dryness scores, AM assessment (FIG. 2, prior to instilling study medication): lower
- mean ocular dryness scores, PM assessment (FIG. 3, prior to lens removal): lower
- mean daily duration of comfortable contact lens wear time (each of the weekly endpoints (Weeks 1-4), FIG. 1): longer
